Tests used:
S. aureus DSM 20231 [1] = experiment: fitness (endpoint OD595 vs no drug) (fraction); higher = more growth
How it was run: (§1)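 Bacterial fitness was scored as optical density at the stationary-phase transition relative to the robust mean of no-drug control wells. Scores are capped at 1. The growth data were OD595 readings every 30 min for 14 h at 37 °C, background-subtracted against the first reading, from 384-well plates inoculated at OD595 0.01 in TSB, LB Lennox or CY.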

S. aureus Newman [2] = experiment: as above
How it was run: as §1

B. subtilis 168 = experiment: Bliss interaction score (quartile over a dose matrix) (fitness difference); higher = more antagonism (negative = synergy)
How it was run: (§2)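 Fitness was defined as normalised growth: OD595 at the start of stationary phase divided by the plate's robust no-drug mean and capped at 1. Single-drug fitness was inferred from combination measurements. The Bliss score is observed fitness minus the product of the single-drug values, summarised by quartiles across technical, biological and donor/recipient replicates.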

S. aureus DSM 20231 [3] = experiment: as above
How it was run: as §2

S. aureus Newman [4] = experiment: as above
How it was run: as §2

S. pneumoniae D39V = experiment: as above
How it was run: as §2
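Wherever Bliss interaction score (quartile over a dose matrix) is given: first quartile when negative (synergy) and third quartile when positive (antagonism).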
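Wherever fitness (endpoint OD595 vs no drug) is given: OD595 on entry to stationary phase over no-drug wells; at most 1.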

O=C(N[C@H](CO)[C@H](O)c1ccc([N+](=O)[O-])cc1)C(Cl)Cl [Chloramphenicol] + CC1=C\[C@@H](O)CC(=O)Cc2nc(co2)C(=O)N2CCC=C2C(=O)O[C@H](C(C)C)[C@H](C)/C=C/C(=O)NC\C=C\1 [Virginiamycin M1]
fitness
Conditions	first compound 0.75 µg/mL	first compound 1.5 µg/mL	first compound 3 µg/mL
S. aureus DSM 20231 [1], partner 0.0625 µg/mL	0.735	0.555	0.084
S. aureus DSM 20231 [1], partner 0.125 µg/mL	0.649	0.569	–
S. aureus DSM 20231 [1], partner 0.25 µg/mL	0.789	0.609	0.12
S. aureus Newman [2], partner 0.0625 µg/mL	0.77	0.467	0.144
S. aureus Newman [2], partner 0.125 µg/mL	0.777	0.474	0.151
S. aureus Newman [2], partner 0.25 µg/mL	0.792	0.488	0.179

fitness, one replicate
Conditions	first compound 0.75 µg/mL	first compound 1.5 µg/mL	first compound 3 µg/mL
S. aureus DSM 20231 [1], partner 0.5 µg/mL	0.884	0.601	–
S. aureus DSM 20231 [1], partner 1 µg/mL	0.811	0.535	0.149
S. aureus Newman [2], partner 0.5 µg/mL	0.827	0.609	0.286
S. aureus Newman [2], partner 1 µg/mL	≥ 1	0.692	0.26
S. aureus Newman [2], partner 2 µg/mL	0.815	0.683	0.153

Conditions	Bliss interaction score
B. subtilis 168	0.0462
S. aureus DSM 20231 [3]	-0.0544
S. aureus Newman [4]	-0.0589
S. pneumoniae D39V	0.0662

O=C(N[C@H](CO)[C@H](O)c1ccc([N+](=O)[O-])cc1)C(Cl)Cl [Chloramphenicol] + CCCCCCCCCC(=O)N[C@@H]1[C@H]([C@@H]([C@H](O[C@H]1OC2=C3C=C4C=C2OC5=C(C=C(C=C5)[C@H]([C@H]6C(=O)N[C@@H](C7=C(C(=CC(=C7)O)OC8[C@H]([C@H]([C@@H]([C@H](O8)CO)O)O)O)C9=C(C=CC(=C9)[C@H](C(=O)N6)NC(=O)[C@@H]4NC(=O)[C@@H]1C2=CC(=CC(=C2)OC2=C(C=CC(=C2)[C@H](C(=O)N[C@H](CC2=CC(=C(O3)C=C2)Cl)C(=O)N1)N)O)O)O)C(=O)O)O[C@H]1[C@@H]([C@H]([C@@H]([C@H](O1)CO)O)O)NC(=O)C)Cl)CO)O)O [Teicoplanin]
fitness, main component drawn
Conditions	first compound 0.75 µg/mL	first compound 1.5 µg/mL	first compound 3 µg/mL
S. aureus DSM 20231 [1], partner 0.1562 µg/mL	0.813	0.638	0.129
S. aureus DSM 20231 [1], partner 0.3125 µg/mL	0.804	–	0.141
S. aureus DSM 20231 [1], partner 0.625 µg/mL	0.915	0.739	0.149
S. aureus Newman [2], partner 0.1562 µg/mL	0.865	0.666	–
S. aureus Newman [2], partner 0.3125 µg/mL	0.876	0.679	0.112
S. aureus Newman [2], partner 0.625 µg/mL	0.842	0.725	0.13

fitness, S. aureus Newman [2], one replicate, main component drawn
Conditions	first compound 0.75 µg/mL	first compound 1.5 µg/mL	first compound 3 µg/mL
partner 0.62 µg/mL	0.876	0.634	0.256
partner 1.24 µg/mL	0.872	0.578	0.191
partner 2.48 µg/mL	0.584	0.512	–

main component drawn
Conditions	Bliss interaction score
B. subtilis 168	-0.0728
S. aureus DSM 20231 [3]	0.143
S. aureus Newman [4]	0.151
S. pneumoniae D39V	-0.0708

O=C(N[C@H](CO)[C@H](O)c1ccc([N+](=O)[O-])cc1)C(Cl)Cl [Chloramphenicol] + CCN(CC)CCOC(=O)c1ccc(N)cc1 [Procaine]
fitness
Conditions	partner 85.5 µg/mL	partner 171 µg/mL	partner 342 µg/mL
S. aureus DSM 20231 [1], first compound 0.75 µg/mL	0.675	–	0.753
S. aureus DSM 20231 [1], first compound 1.5 µg/mL	0.516	0.57	0.538
S. aureus DSM 20231 [1], first compound 3 µg/mL	0.0915	0.0967	0.0943
S. aureus Newman [2], first compound 0.75 µg/mL	0.783	0.787	0.793
S. aureus Newman [2], first compound 1.5 µg/mL	0.531	0.559	0.577

Conditions	Bliss interaction score
B. subtilis 168	-0.0897
S. aureus DSM 20231 [3]	-0.0791
S. aureus Newman [4]	0.0594
S. pneumoniae D39V	-0.0498

O=C(N[C@H](CO)[C@H](O)c1ccc([N+](=O)[O-])cc1)C(Cl)Cl [Chloramphenicol] + CN1C2=CC=CC=C2N=C3C1=CC=CC3=O [Pyocyanin]
fitness
Conditions	first compound 0.75 µg/mL	first compound 1.5 µg/mL	first compound 3 µg/mL
S. aureus DSM 20231 [1], partner 1.25 µg/mL	0.645	–	0.0788
S. aureus DSM 20231 [1], partner 2.5 µg/mL	–	0.321	–
S. aureus DSM 20231 [1], partner 5 µg/mL	–	0.332	0.0653
S. aureus Newman [2], partner 1.25 µg/mL	0.741	0.5	0.174
S. aureus Newman [2], partner 2.5 µg/mL	0.725	0.41	0.137
S. aureus Newman [2], partner 5 µg/mL	0.333	0.173	0.0578

Conditions	Bliss interaction score
B. subtilis 168	0.049
S. aureus DSM 20231 [3]	-0.0896
S. aureus Newman [4]	-0.0632
S. pneumoniae D39V	0.0521

O=C(N[C@H](CO)[C@H](O)c1ccc([N+](=O)[O-])cc1)C(Cl)Cl [Chloramphenicol] + CN(N=O)C(=O)N[C@@H](C=O)[C@@H](O)[C@H](O)[C@H](O)CO [Streptozotocin]
fitness
Conditions	first compound 0.75 µg/mL	first compound 1.5 µg/mL	first compound 3 µg/mL
S. aureus DSM 20231 [1], partner 0.15 µg/mL	0.677	0.481	0.104
S. aureus DSM 20231 [1], partner 0.3 µg/mL	0.603	0.46	0.1
S. aureus DSM 20231 [1], partner 0.6 µg/mL	0.616	0.385	0.0772
S. aureus Newman [2], partner 0.15 µg/mL	0.705	0.464	–
S. aureus Newman [2], partner 0.3 µg/mL	0.605	0.402	0.0999
S. aureus Newman [2], partner 0.6 µg/mL	0.47	0.295	0.0766

Conditions	Bliss interaction score
B. subtilis 168	0.0462
S. aureus DSM 20231 [3]	-0.0514
S. aureus Newman [4]	0.0386
S. pneumoniae D39V	-0.0846

From the supplement of paper PMC10627819
